Conditions: for surface tension liquid-gas: Maximal bubble pressure; for viscosity / mass density / electrical conductivity: 101.33 kPa, Liquid; for viscosity: Concentric cylinders viscometry; for mass density: Vibrating tube method; for electrical conductivity: Alternating current cell with electrodes

CCn1cc[n+](C)c1C.O=S(=O)([O-])O [1-ethyl-2,3-dimethylimidazolium hydrogen sulfate]
Conditions | electrical conductivity [S/m] | mass density [kg/m3] | surface tension liquid-gas [mN/m] | viscosity [mPa·s]
288.15 K | – | 1261.94 | 50.4 | 375
293.15 K | – | 1258.09 | 50.1 | 263.6
298.15 K | 0.15 | 1254.43 | 49.8 | 186
303.15 K | 0.193 | 1250.77 | 49.5 | 134.9
308.15 K | 0.244 | 1247.08 | 49.3 | 98.41
313.15 K | 0.308 | 1243.3 | 49 | 72.94
318.15 K | 0.377 | 1239.59 | 48.7 | 53.72
323.15 K | 0.458 | 1235.8 | 48.4 | 40.12
328.15 K | 0.554 | 1232.2 | 48.1 | 30.2
333.15 K | 0.665 | 1228.52 | 47.8 | 22.37
338.15 K | 0.787 | 1224.82 | 47.5 | 17.96
343.15 K | 0.925 | 1221.18 | 47.2 | 12.57

CCCCCn1cc[n+](C)c1C.O=S(=O)([O-])O [2,3-dimethyl-1-pentylimidazolium hydrogen sulfate]
Conditions | electrical conductivity [S/m] | mass density [kg/m3] | surface tension liquid-gas [mN/m] | viscosity [mPa·s]
288.15 K | – | 1196.47 | 42.5 | 772.4
293.15 K | – | 1193.23 | 42.2 | 597
298.15 K | 0.075 | 1190.07 | 42 | 462.8
303.15 K | 0.105 | 1186.89 | 41.7 | 358.7
308.15 K | 0.145 | 1183.89 | 41.5 | 281.1
313.15 K | 0.197 | 1180.69 | 41.2 | 224.2
318.15 K | 0.257 | 1177.69 | 40.9 | 176
323.15 K | 0.324 | 1174.61 | 40.7 | 140.1
328.15 K | 0.399 | 1171.29 | 40.4 | 113
333.15 K | 0.485 | 1168.33 | 40.1 | 90
338.15 K | 0.573 | 1165.21 | 39.9 | 73.77
343.15 K | 0.675 | 1162.18 | 39.6 | 57.54

CCCCn1cc[n+](C)c1.O=P([O-])(O)O [1-butyl-3-methylimidazolium dihydrogen phosphate]
Conditions | electrical conductivity [S/m] | mass density [kg/m3] | surface tension liquid-gas [mN/m] | viscosity [mPa·s]
288.15 K | 0.303 | 1183.24 | 44.2 | 198.7
293.15 K | 0.359 | 1179.91 | 43.9 | 159
298.15 K | 0.419 | 1176.54 | 43.6 | 125.6
303.15 K | 0.483 | 1173.18 | 43.2 | 101.1
308.15 K | 0.555 | 1169.69 | 42.9 | 80.78
313.15 K | 0.628 | 1166.3 | 42.6 | 65.21
318.15 K | 0.707 | 1162.8 | 42.3 | 53.62
323.15 K | 0.788 | 1159.53 | 42 | 43.67
328.15 K | 0.868 | 1156.13 | 41.7 | 36.75
333.15 K | 0.965 | 1152.67 | 41.4 | 29.77
338.15 K | 1.06 | 1149.36 | 41.1 | 25.21
343.15 K | 1.16 | 1146.03 | 40.8 | 20.96

CCCCn1cc[n+](C)c1C.O=S(=O)([O-])O [1-butyl-2,3-dimethylimidazolium hydrogen sulfate]
Conditions | electrical conductivity [S/m] | mass density [kg/m3] | surface tension liquid-gas [mN/m] | viscosity [mPa·s]
288.15 K | – | 1217.09 | 45.3 | 628.5
293.15 K | – | 1213.74 | 45 | 469.7
298.15 K | 0.1 | 1210.61 | 44.8 | 355.2
303.15 K | 0.135 | 1207.35 | 44.5 | 271.3
308.15 K | 0.179 | 1203.89 | 44.2 | 206.3
313.15 K | 0.231 | 1200.63 | 43.9 | 157.2
318.15 K | 0.292 | 1197.49 | 43.7 | 121.8
323.15 K | 0.36 | 1194.03 | 43.4 | 95.86
328.15 K | 0.441 | 1190.8 | 43.1 | 74.49
333.15 K | 0.531 | 1187.57 | 42.8 | 60.7
338.15 K | 0.631 | 1184.29 | 42.6 | 46.52
343.15 K | 0.739 | 1180.99 | 42.3 | 38.13

CCCn1cc[n+](C)c1C.O=S(=O)([O-])O [2,3-dimethyl-1-propylimidazolium hydrogen sulfate]
Conditions | electrical conductivity [S/m] | mass density [kg/m3] | surface tension liquid-gas [mN/m] | viscosity [mPa·s]
288.15 K | – | 1239.79 | 47.7 | 500.4
293.15 K | – | 1236.23 | 47.4 | 362.3
298.15 K | 0.123 | 1232.82 | 47.2 | 263.7
303.15 K | 0.162 | 1229.24 | 46.9 | 194.2
308.15 K | 0.211 | 1225.73 | 46.6 | 142.2
313.15 K | 0.267 | 1222.13 | 46.3 | 107
318.15 K | 0.333 | 1218.82 | 46.1 | 81.27
323.15 K | 0.409 | 1215.29 | 45.8 | 62.04
328.15 K | 0.496 | 1211.74 | 45.5 | 47.83
333.15 K | 0.6 | 1208.35 | 45.2 | 35.71
338.15 K | 0.711 | 1204.81 | 44.9 | 27.47
343.15 K | 0.832 | 1201.46 | 44.7 | 21.17

CCCCn1cc[n+](C)c1.O=C([O-])O [1-butyl-3-methylimidazolium hydrogen carbonate]
Conditions | electrical conductivity [S/m] | mass density [kg/m3] | surface tension liquid-gas [mN/m] | viscosity [mPa·s]
288.15 K | 0.274 | 1164.1 | 34.9 | 122.9
293.15 K | 0.322 | 1160.5 | 34.4 | 94.8
298.15 K | 0.376 | 1157.08 | 34 | 73.73
303.15 K | 0.439 | 1153.64 | 33.5 | 57.64
308.15 K | 0.496 | 1150 | 33.1 | 45.33
313.15 K | 0.557 | 1146.51 | 32.6 | 35.86
318.15 K | 0.622 | 1142.95 | 32.2 | 28.85
323.15 K | 0.689 | 1139.45 | 31.7 | 22.93
328.15 K | 0.755 | 1136.1 | 31.2 | 18.54
333.15 K | 0.823 | 1132.53 | 30.8 | 14.81
338.15 K | 0.893 | 1128.92 | 30.4 | 11.88
343.15 K | 0.963 | 1125.52 | 29.9 | 10.04

CCC[n+]1ccn(C)c1.O=P([O-])(O)O [1-methyl-3-propylimidazolium dihydrogen phosphate]
Conditions | electrical conductivity [S/m] | mass density [kg/m3] | surface tension liquid-gas [mN/m] | viscosity [mPa·s]
288.15 K | 0.469 | 1202.41 | 46.4 | 99.38
293.15 K | 0.536 | 1198.96 | 46.1 | 78.41
298.15 K | 0.613 | 1195.45 | 45.8 | 61.92
303.15 K | 0.693 | 1191.95 | 45.5 | 49.58
308.15 K | 0.785 | 1188.45 | 45.2 | 39.3
313.15 K | 0.879 | 1184.95 | 44.9 | 32.16
318.15 K | 0.977 | 1181.43 | 44.6 | 25.81
323.15 K | 1.08 | 1177.89 | 44.3 | 21.02
328.15 K | 1.19 | 1174.36 | 44 | 17.17
333.15 K | 1.3 | 1170.8 | 43.7 | 13.85
338.15 K | 1.41 | 1167.24 | 43.4 | 11.43
343.15 K | 1.55 | 1163.66 | 43.1 | 10.04
